Assay results taken from patent publication US8586505B2 (SDS Biotech K. K., priority 2009, dated 2013).

Tests used:
Assay type in all cases: in vivo
[1] = tested on: Sphaerotheca fuliginea; assay: Test of examining control effect on Sphaerotheca fuliginea (potted cucumber plants); settings: Podosphaera fuliginea, 336 h; 10% wettable powder adjusted to 125 ppm, 15 ml/pot sprayed on potted cucumber plants one day before spray inoculation; assessed after 14 days in greenhouse; read-out: Determination of control effect (preventive value) on Sphaerotheca fuliginea
Description: (§1) Calculation of Preventive Value: Preventive value={(untreated lesion area rate−treated lesion area rate)/untreated lesion area rate}×100
(§2) Using the thus calculated preventive value, the control effect of each compound was determined in accordance with the following standards.
(§3) High control effect: 100%≧preventive value≧60%
(§4) Low control effect: 60%>preventive value≧0%
Using a spray gun, an agent solution prepared by adjusting a 10% wettable powder of each sample compound to 125 ppm (hereinafter referred to as a “sample agent solution”) was sprayed to potted cucumber plants (variety: Sagamihanjiro, 2nd leave stage) in a concentration of 15 ml/pot. One day after the spraying, a conidial suspension of Sphaerotheca fuliginea (conidial concentration: 1.0×10^5 cells/ml) was applied to the plants by spray inoculation. The plants were left in a greenhouse for 14 days, so that they were fully infected with the aforementioned disease. Thereafter, the disease level on each leaf was compared with that on an untreated leaf, and the control effect of each compound was determined in the same manner as in Example 3(1).

[2] = tested on: Pseudoperonospora cubensis; assay: Test of examining control effect on Pseudoperonospora cubensis (potted cucumber plants); settings: 96 h, 10% wettable powder adjusted to 125 ppm, 15 ml/pot sprayed on potted cucumber plants one day before spray inoculation, assessed after 1 day wet chamber and 3 days greenhouse, read-out: Determination of control effect (preventive value) on Pseudoperonospora cubensis
Description: as §1, §2, §3, §4
Using a spray gun, an agent solution prepared by adjusting a 10% wettable powder of each sample compound to 125 ppm (hereinafter referred to as a “sample agent solution”) was sprayed to potted cucumber plants (variety: Sagamihanjiro, 2.5 leave stage) in a concentration of 15 ml/pot. One day after the spraying, a conidial suspension of Pseudoperonospora cubensis (conidial concentration: 1.0×10^4 cells/ml) was applied to the plants by spray inoculation. After completion of the inoculation, the plants were left at 21° C. under wet chamber conditions for 1 day, and were then left in a greenhouse for 3 days, so that they were fully infected with the aforementioned disease. Thereafter, the disease level on each leaf was compared with that on an untreated leaf, and the control effect of each compound was determined in the same manner as in Example 3(1).

[3] = tested on: Phytophthora infestans; assay: whole plant or invertebrate; settings: in Solanum lycopersicum, 96 h, read-out: Determination of control effect (preventive value)

SMILES | pest or weed control at 125 µg/mL [1] [%] | pest or weed control at 125 µg/mL [2] [%] | pest or weed control at 125 ppm [3] [%]
CC(CC#Cc1ccccc1CO)Nc1ncnc2sccc12 (centres unmarked) [compound 243] | 60 to 100 | 60 to 100 | 60 to 100
Fc1ccc(F)c(C#CCCNc2ncnc3ccccc23)c1 [compound 163] | 60 to 100 | 60 to 100 | 60 to 100
COc1ccccc1C#CCCNc1ncnc2sccc12 [compound 21] | 0 to 60 | 60 to 100 | 60 to 100
CC(CC#Cc1ccccc1S(C)(=O)=O)Nc1ncnc2sccc12 (centres unmarked) [compound 237] | 60 to 100 | 60 to 100 | 60 to 100
COCc1ccccc1C#CCCNc1ncnc2ccc(C)cc12 [compound 326] | 60 to 100 | 60 to 100 | 0 to 60
Cc1ncnc(NC(C)CC#Cc2ccccc2)c1Cl (centres unmarked) [compound 389] | 60 to 100 | 60 to 100 | 0 to 60
CS(=O)(=O)c1ncnc(NCCC#Cc2ccccc2C(F)(F)F)c1[N+](=O)[O-] [compound 369] | 0 to 60 | 0 to 60 | 0 to 60
CC(C)c1ccccc1C#CCCNc1ncnc2ccccc12 [compound 104] | 60 to 100 | 60 to 100 | 60 to 100
N#Cc1cc(F)ccc1C#CCCNc1ncnc2ccccc12 [compound 170] | 60 to 100 | 60 to 100 | 60 to 100
CN(C)S(=O)(=O)c1ccc(C#CCCNc2ncnc3ccccc23)cc1 [compound 122] | 0 to 60 | 60 to 100 | 0 to 60
C(#CC1=CCCCC1)CCNc1ncnc2ccccc12 [compound 94] | 60 to 100 | 60 to 100 | 0 to 60
Cc1ncnc(NCCC#Cc2ccc(Cl)cc2C(F)(F)F)c1Cl [compound 360] | 60 to 100 | 60 to 100 | 0 to 60
CC(C)(C)[Si](C)(C)OCc1nc(C#CCCNc2ncnc3sccc23)cs1 [compound 71] | 60 to 100 | 60 to 100 | 60 to 100
CC(C)C(CC#Cc1ccccc1)Nc1ncnc2ccccc12 (centres unmarked) [compound 298] | 60 to 100 | 60 to 100 | 60 to 100
COCc1ccsc1C#CCCNc1ncnc2ccccc12 [compound 207] | 60 to 100 | 60 to 100 | 60 to 100
CS(=O)(=O)Nc1ccc(C#CCCNc2ncnc3ccccc23)cc1 [compound 123] | 0 to 60 | 60 to 100 | 0 to 60
COCc1ccccc1C#CCCNc1ncnc2ccc(C#N)cc12 [compound 330] | 0 to 60 | 60 to 100 | 60 to 100
COCc1ccccc1C#CCCNc1ncnc2c(C(F)(F)F)cccc12 [compound 323] | 60 to 100 | 60 to 100 | 60 to 100
O=Cc1nc(C#CCCNc2ncnc3sccc23)cs1 [compound 69] | 0 to 60 | 60 to 100 | 60 to 100
CC(CC#Cc1ccc(F)cc1)Nc1ncnc2sccc12 (centres unmarked) [compound 230] | 60 to 100 | 60 to 100 | 60 to 100
COCc1ccccc1C#CCCNc1ncnc2sccc12 [compound 45] | – | 60 to 100 | 60 to 100
CNC(=O)c1ccc(C#CCCNc2ncnc3ccccc23)cc1 [compound 126] | 0 to 60 | 60 to 100 | 60 to 100
COCc1ccccc1C#CCCNc1ncnc2ccc([N+](=O)[O-])cc12 [compound 331] | 0 to 60 | 60 to 100 | 0 to 60

SMILES | pest or weed control at 125 µg/mL [1] [%] | pest or weed control at 125 µg/mL [2] [%] | pest or weed control at 125 ppm [3] [%]
Fc1ccc(C#CCCNc2ncnc3sccc23)cc1 [compound 13] | 60 to 100 | 60 to 100 | 0 to 60
CC(CC#Cc1c(Cl)cc(F)cc1Cl)Nc1ncnc2sccc12 (centres unmarked) [compound 261] | 60 to 100 | 60 to 100 | –
C(#Cc1cccs1)CCNc1ncnc2sccc12 [compound 53] | – | 60 to 100 | 0 to 60
COCc1ccccc1C#CCCNc1ncnc2c(C)csc12 [compound 50] | – | 60 to 100 | 60 to 100
C(#Cc1ccoc1)CCNc1ncnc2sccc12 [compound 52] | – | 60 to 100 | 0 to 60
N#Cc1ccc(C#CCCNc2ncnc3sccc23)cc1 [compound 37] | – | 60 to 100 | 60 to 100
CC(=O)Nc1ccccc1C#CCCNc1ncnc2ccccc12 [compound 160] | – | 0 to 60 | 0 to 60
COCc1ccccc1C#CCCNc1ncnc2ccsc12 [compound 49] | – | 60 to 100 | 60 to 100
N#Cc1cccc(C#CCCNc2ncnc3sccc23)c1 [compound 36] | – | 60 to 100 | 60 to 100
C(#Cc1ccsc1)CCNc1ncnc2sccc12 [compound 54] | – | 60 to 100 | 0 to 60
C(#Cc1ccccn1)CCNc1ncnc2sccc12 [compound 55] | – | 60 to 100 | 60 to 100
COCc1ccccc1C#CCCNc1ncnc2scc(C)c12 [compound 51] | – | 60 to 100 | 60 to 100
O=Cc1ccccc1C#CCCNc1ncnc2sccc12 [compound 48] | – | 60 to 100 | 60 to 100
OCc1ccccc1C#CCCNc1ncnc2sccc12 [compound 44] | – | 60 to 100 | 60 to 100
CCOCc1ccccc1C#CCCNc1ncnc2sccc12 [compound 46] | – | 60 to 100 | 60 to 100
Cc1cc(C)c(C#CCC(C)Nc2ncnc3sccc23)c(C)c1 (centres unmarked) [compound 263] | 60 to 100 | 60 to 100 | –
Cc1ccc(C#CCC(C)Nc2ncnc3sccc23)c(Cl)c1 (centres unmarked) [compound 255] | 60 to 100 | – | 60 to 100
FC(F)(F)Oc1ccc(C#CCCNc2ncnc3sccc23)cc1 [compound 34] | – | 60 to 100 | 60 to 100
FCc1ccccc1C#CCCNc1ncnc2sccc12 [compound 47] | – | 60 to 100 | 60 to 100
N#Cc1ccccc1C#CCCNc1ncnc2sccc12 [compound 35] | – | 60 to 100 | 60 to 100
FC(F)(F)Oc1ccccc1C#CCCNc1ncnc2sccc12 [compound 32] | – | 60 to 100 | 60 to 100
FC(F)(F)Oc1cccc(C#CCCNc2ncnc3sccc23)c1 [compound 33] | – | 60 to 100 | 60 to 100
